Assay results published in patent US20250243160A1, “INDOLE DERIVATIVES FOR TARGETING AUTOPHAGY” (Automera PTE. LTD, priority 2024, published 2025).

Tested on: p62 puncta
Assay: p62 puncta immunocytochemistry imaging in HeLa cells
Assay type: cell-based
Conditions: 24 hours treatment, relative to vehicle control (DMSO)
Protocol: HeLa cells were seeded in coated 96-well plates (10,000 cells) and allowed to adhere overnight. After 24 hours of treatment with either vehicle (DMSO) or test compounds, the media was discarded, and cells were rinsed with ice-cold 1×PBS before fixation by 4% formaldehyde or paraformaldehyde for 20 min. Cells were then washed with 1×PBS and permeabilized with 0.1% Triton X-100 in PBS for 20 min and blocked with Blocking Buffer in PBS for 1 hour. The cells were incubated thereafter for 1 hour with anti-p62 primary antibody in Blocking Buffer, followed by incubation with secondary antibody for 1 hour. DAPI dye was used to visualize nuclei of fixed cells. The blocking buffer used were 5% Fetal Bovine Serum (FBS, ThermoFIsher Scientific, 10270106) and Li-cor Intercept (PBS) Blocking Buffer (Li-cor, 927-70001). The primary antibody used was mouse anti-p62 primary antibody (Novus Biologicals, H00008878-M01). The secondary antibodies used were goat anti-mouse Alexa Fluor Plus 488 secondary antibody (Invitrogen, GOXMS) and goat anti-mouse Alexa Fluor 488 secondary antibody (Invitrogen, A-11029). The DAPI dyes used were DAPI dye (Invitrogen, 62248) and DAPI dye (Invitrogen, D1306).
For the EVOS M7000 System, cells were imaged on the EVOS M7000 microscope using a 20× air objective (Nikon, N.A 0.45). DAPI and p62 channels were illuminated with LED light cubes using integrated hard-coated filter sets for DAPI (357/447 nm) and GFP (470/525 nm) respectively. Images were analysed for p62 puncta count on the Celeste 6.0 software.
For the Operetta CLS System, cells were imaged on the Operetta CLS using a 63× water objective on the DAPI and Alexa 488 channels. Images were analysed for p62 puncta count on the Harmony 5.1 software.
HeLa cells were treated with compounds for 24 hours to evaluate the effect of these compounds on p62 puncta activity. The resulting changes in levels of p62 puncta were assessed by imaging, either on the EVOS M7000 or Operetta CLS systems as described in experimental procedures. The fold change of p62 puncta levels induced by compound treatment relative to vehicle control (DMSO) was determined and summarized in Table 10.

| Structure (SMILES) | p62 puncta (fold change of p62 puncta levels) |
| --- | --- |
| OCCNCc1ccc(Cl)c2c1ccn2Cc1ccc(F)cc1 [Compound 80] | ++ (>2-fold change in p62 puncta levels relative to DMSO control) |
| CNCCOCCOCCOCCNCc1cc(F)cc2c1ccn2Cc1ccc(Cl)cc1 [Compound 90] | ++ (>2-fold change in p62 puncta levels relative to DMSO control) |
| CNCCOCCOCCNCc1cc(F)cc2c1ccn2Cc1ccc(Cl)cc1 [Compound 89] | ++ (>2-fold change in p62 puncta levels relative to DMSO control) |
| COCCNCc1cc(F)cc2c1ccn2Cc1ccc(Cl)cc1 [Compound 108] | ++ (>2-fold change in p62 puncta levels relative to DMSO control) |
| C#CCCN1CCC(COCCNCc2cc(F)cc3c2ccn3Cc2ccc(Cl)cc2)CC1 [Compound 120] | ++ (>2-fold change in p62 puncta levels relative to DMSO control) |
| CC(C)(C)OC(=O)CCCCCOCCNCc1cc(F)cc2c1ccn2Cc1ccc(Cl)cc1 [Compound 150] | + (<2-fold change in p62 puncta levels relative to DMSO control) |
| OCCNCc1cncc2c1ccn2Cc1ccc(Cl)cc1 [Compound 110, 2-(((1-(4-chlorobenzyl)-1H-pyrrolo[2,3-c]pyridin-4-yl)methyl)amino)ethan-1-ol] | ++ (>2-fold change in p62 puncta levels relative to DMSO control) |
| Cc1cn(Cc2ccc(F)cc2)c2cc(F)cc(CNCCO)c12 [Compound 81] | ++ (>2-fold change in p62 puncta levels relative to DMSO control) |
| C#CCOCCOCCOCCNCc1cc(F)cc2c1ccn2Cc1ccc(Cl)cc1 [Compound 137] | ++ (>2-fold change in p62 puncta levels relative to DMSO control) |
| C#CCCN1CCN(CCOCCNCc2cc(F)cc3c2ccn3Cc2ccc(Cl)cc2)CC1 [Compound 121] | ++ (>2-fold change in p62 puncta levels relative to DMSO control) |
| COC(=O)C1(COCCNCc2cc(F)cc3c2ccn3Cc2ccc(Cl)cc2)COC1 [Compound 155] | + (<2-fold change in p62 puncta levels relative to DMSO control) |
| C#CCCOCCNCc1cc(F)cc2c1ccn2Cc1ccc(F)cc1 [Compound 125] | + (<2-fold change in p62 puncta levels relative to DMSO control) |
| CC(C)(C)OC(=O)NCCCOCCNCc1cc(F)cc2c1ccn2Cc1ccc(Cl)cc1 [Compound 163] | ++ (>2-fold change in p62 puncta levels relative to DMSO control) |
| CC(C)(C)OC(=O)N1CCC(OCCOCCNCc2cc(F)cc3c2ccn3Cc2ccc(Cl)cc2)CC1 [Compound 93] | ++ (>2-fold change in p62 puncta levels relative to DMSO control) |
| CC(C)(C)OC(=O)NCCOCCNCc1cc(F)cc2c1ccn2Cc1ccc(Cl)cc1 [Compound 133] | ++ (>2-fold change in p62 puncta levels relative to DMSO control) |
| COC1CN(Cc2cncc3c2ccn3Cc2ccc(F)cc2)C1 [Compound 114] | + (<2-fold change in p62 puncta levels relative to DMSO control) |
| OCCNCc1cc2ccn(Cc3ccc(F)cc3)c2cc1F [Compound 112, 2-(((6-fluoro-1-(4-fluorobenzyl)-1H-indol-5-yl)methyl)amino)ethan-1-ol] | ++ (>2-fold change in p62 puncta levels relative to DMSO control) |
| CC(C)(C)OC(=O)CCOCCNCc1cc(F)cc2c1ccn2Cc1ccc(Cl)cc1 [Compound 142] | + (<2-fold change in p62 puncta levels relative to DMSO control) |
| OCCNCc1cncc2c1ccn2Cc1ccc(F)cc1 [Compound 113] | + (<2-fold change in p62 puncta levels relative to DMSO control) |
| CNCCOCc1cccc2c1ccn2Cc1ccc(F)cc1 [Compound 77] | ++ (>2-fold change in p62 puncta levels relative to DMSO control) |
| CC(C)(C)OC(=O)N1CC(COCCNCc2cc(F)cc3c2ccn3Cc2ccc(Cl)cc2)C1 [Compound 164] | ++ (>2-fold change in p62 puncta levels relative to DMSO control) |
| CC(C)(C)OC(=O)CCCCCCCCOCCNCc1cc(F)cc2c1ccn2Cc1ccc(Cl)cc1 [Compound 149] | + (<2-fold change in p62 puncta levels relative to DMSO control) |
| C#Cc1ccc(COCCNCc2cc(F)cc3c2ccn3Cc2ccc(Cl)cc2)cc1 [Compound 173] | ++ (>2-fold change in p62 puncta levels relative to DMSO control) |

| Structure (SMILES) | p62 puncta (fold change of p62 puncta levels) |
| --- | --- |
| Fc1cc(CNCCOCCCCl)c2ccn(Cc3ccc(Cl)cc3)c2c1 [Compound 146] | ++ (>2-fold change in p62 puncta levels relative to DMSO control) |
| CC(C)(C)OC(=O)NCCCCCCOCCNCc1cc(F)cc2c1ccn2Cc1ccc(Cl)cc1 [Compound 159] | ++ (>2-fold change in p62 puncta levels relative to DMSO control) |
| CC(C)(C)OC(=O)NCCOCCOCCNCc1cc(F)cc2c1ccn2Cc1ccc(Cl)cc1 [Compound 135] | ++ (>2-fold change in p62 puncta levels relative to DMSO control) |
| CC(C)(C)OC(=O)N1CC(OCCNCc2cc(F)cc3c2ccn3Cc2ccc(Cl)cc2)C1 [Compound 167] | ++ (>2-fold change in p62 puncta levels relative to DMSO control) |
| COC(=O)CCOCCOCCNCc1cc(F)cc2c1ccn2Cc1ccc(Cl)cc1 [Compound 88] | + (<2-fold change in p62 puncta levels relative to DMSO control) |
| OCCNCc1ccnc2c1ccn2Cc1ccc(Cl)cc1 [Compound 111] | + (<2-fold change in p62 puncta levels relative to DMSO control) |
| C#CCCOCCNCc1cc(F)cc2c1ccn2Cc1ccc(Cl)cc1 [Compound 143] | ++ (>2-fold change in p62 puncta levels relative to DMSO control) |
| C#CCCOCCOCCOCCNCc1cc(F)cc2c1ccn2Cc1ccc(F)cc1 [Compound 123] | ++ (>2-fold change in p62 puncta levels relative to DMSO control) |
| CC(C)(C)OC(=O)NC1CCN(CCOCCNCc2cc(F)cc3c2ccn3Cc2ccc(Cl)cc2)CC1 [Compound 127] | ++ (>2-fold change in p62 puncta levels relative to DMSO control) |
| CC(C)(C)OC(=O)CCOCCOCCNCc1cc(F)cc2c1ccn2Cc1ccc(Cl)cc1 [Compound 138] | ++ (>2-fold change in p62 puncta levels relative to DMSO control) |
| Fc1cc(CNCCOCCOCCOCCCOc2ccccc2)c2ccn(Cc3ccc(Cl)cc3)c2c1 [Compound 94] | ++ (>2-fold change in p62 puncta levels relative to DMSO control) |
| COC1CCN(CCOCCNCc2cc(F)cc3c2ccn3Cc2ccc(Cl)cc2)CC1 [Compound 129] | ++ (>2-fold change in p62 puncta levels relative to DMSO control) |
| CC(C)(C)OC(=O)CCCCOCCNCc1cc(F)cc2c1ccn2Cc1ccc(Cl)cc1 [Compound 147] | + (<2-fold change in p62 puncta levels relative to DMSO control) |
| C#CCOCCOCCNCc1cc(F)cc2c1ccn2Cc1ccc(Cl)cc1 [Compound 140] | ++ (>2-fold change in p62 puncta levels relative to DMSO control) |
| C#CCCOCCOCCNCC(O)COc1cccc2c1ccn2Cc1ccccc1 (stereo not drawn) [Compound 117] | ++ (>2-fold change in p62 puncta levels relative to DMSO control) |
| CC(C)(C)OC(=O)NCCOCCOCCOCCNCc1cc(F)cc2c1ccn2Cc1ccc(Cl)cc1 [Compound 136] | ++ (>2-fold change in p62 puncta levels relative to DMSO control) |
| C#CCCCCCCCCOCCNCc1cc(F)cc2c1ccn2Cc1ccc(Cl)cc1 [Compound 170] | ++ (>2-fold change in p62 puncta levels relative to DMSO control) |
| CCOC(=O)C1CCN(C(=O)COCCNCc2cc(F)cc3c2ccn3Cc2ccc(Cl)cc2)CC1 [Compound 152] | + (<2-fold change in p62 puncta levels relative to DMSO control) |
| CC(C)(C)OC(=O)NCCN1CCN(CCOCCNCc2cc(F)cc3c2ccn3Cc2ccc(Cl)cc2)CC1 [Compound 128] | ++ (>2-fold change in p62 puncta levels relative to DMSO control) |
| C#CCCCCCOCCNCc1cc(F)cc2c1ccn2Cc1ccc(Cl)cc1 [Compound 148] | + (<2-fold change in p62 puncta levels relative to DMSO control) |
| CC(C)(C)OC(=O)Nc1ccc(COCCNCc2cc(F)cc3c2ccn3Cc2ccc(Cl)cc2)cc1 [Compound 160] | ++ (>2-fold change in p62 puncta levels relative to DMSO control) |
| COCCN1CCC(OCCNCc2cc(F)cc3c2ccn3Cc2ccc(Cl)cc2)CC1 [Compound 130] | ++ (>2-fold change in p62 puncta levels relative to DMSO control) |
